Source: PMC12400753 (Respiratory Research, 2025)
Like-named read-outs stand apart in the source and are kept apart here.

Assays:
[1] = molecular target: LPAR1 (Homo sapiens, UniProt Q92633); assay: LPA-induced calcium mobilization in transiently transfected HEK293T cells; type: cell-based; parameters: host or cells: HEK293T; settings: 3 h preincubation; LPA at EC80 5 µM
Protocol: We had previously assessed selectivity against LPAR2 and 3 [11]. […] Human LPAR1-6 plasmids were each transiently transfected into HEK293T cells and the EC80 (effective concentration producing 80% maximal effect) for LPA activation empirically determined. Selectivity was then tested in a concentration response paradigm using a 3 h preincubation followed by LPA-induced calcium mobilization.
Plasmids containing human LPAR1-6 were obtained from Origene (Rockville, MD) and maxiprepped at Eton Biosciences (San Diego, CA). Transfection mix was prepared by adding Fugene 6 transfection mix to serum free media and 0.1 µg plasmid. After a 20 m incubation, HEK293T cells (ATCC, Manassas VA) were lifted with Accutase and added to the Fugene mix at a final concentration of 0.5 × 10^4 cells/well. Cells were then plated on black clear bottom 96-well plates and incubated overnight in a 37 °C, 5% CO2 incubator. […] During the last hour of incubation, media was removed and replaced with Fluo-4 NW calcium assay dye prepared as per manufacturer’s recommendations in assay buffer. Agonist plates containing LPA were prepared for individual receptor subytpes using their respective EC80. Calcium mobilization was measured as per manufacturer’s directions on a Flexstation 3 (Molecular Devices, San Jose, CA).

[2] = tested on: LPA-induced mast cell histamine release; assay: In vivo LPA-induced histamine release; parameters: species or system mouse
Protocol: Female CD-1 mice (Envigo) were allowed to acclimate for ~ 1 week. Animals were subject to a 12 h light – 12 h dark cycle. Mice were multi-housed in Innorack IVC mouse racks (Innovive, San Diego, CA) with access to water and standard rodent chow ad libitum. […] Three hours or 24 h after a single dose or after the last of 4 repeated administrations, 150 µL FAF-PBS/BSA (Control) or LPA (300 µg in 150 µL) was administered IV via the lateral tail vein and mice were immediately placed into an isoflurane chamber. Two minutes later, mice were euthanized by decapitation and trunk blood collected into K3EDTA tubes and stored on wet ice until processing to plasma (1450 x g, 10 min, 4 °C). Plasma was aliquoted into two 96-well polypropylene plates and transferred to −80 °C for storage until analysis for histamine by EIA.

[3] = tested on: human precision cut lung slices from donors with pulmonary fibrosis; assay: Fibrotic marker mRNA (qPCR) in cryopreserved PCLS from donors with pulmonary fibrosis; type: cell-based; settings: PIPE-791, 6 days, 6 donors
[4] = molecular target: T1, LPAR1 (Mus musculus, UniProt P61793); assay: In vivo lung receptor occupancy with [3H]-PIPE-497; settings: for EC50: read-out: lung receptor occupancy EC50 (plasma concentration)
T1 construct: from tissue; host or cells: lung of female C57BL6/N mice, dosed in vivo
Protocol: [^3H]-PIPE-497 was diluted to 9.8 µCi/mL in saline and administered via IV injection to the lateral tail vein at a dose volume of 5 mL/kg. Five minutes following radioligand administration, mice were euthanized by decapitation, trunk blood collected into K3EDTA tubes and stored on wet ice, each lung rapidly dissected, weighed and placed into a 5 mL polypropylene tube. Tissues were diluted with a 10x volume of ice-cold binding buffer (50 mM HEPES, 100 mM NaCl2, 2 mM EDTA). Lungs were then homogenized (25,000 rpm, 7 s). 300 µL of homogenate was filtered over Whatman GF/B filters (GE Life Sciences, Marlborough, MA) which had been pre-wetted with 0.5% polyethyleneimine prior to loading onto the Hoefer vacuum manifold. Filters were washed once by applying 3 mL ice-cold wash buffer (50 mM Tris, 154 mM NaCl, 0.05% Tween 20) to the manifold for a total of 2 washes. […] Washed filters were removed from the manifold and air dried. Following completion of filtration of all samples, uncapped scintillation vials were placed into an oven (~ 40–50 °C) for ~ 30 min to ensure complete drying. Five (5) mL Ultima Gold F scintillation fluid was added to each tube. Tubes were capped, gently agitated, and dark equilibrated for 30 min then read on a Beckman LS6500 liquid scintillation counter for tritium disntegrations per minute measurements. After all samples were collected, dissected, and filtered, the previously collected blood in K3EDTA tubes was centrifuged (1450 x g, 10 min, 4 °C) to separate plasma.

[5] = tested on: primary human lung fibroblasts; assay: TGFβ1- or LPA-induced myofibroblast transformation (αSMA, COL1A1); type: cell-based; settings: PIPE-791 1 µM
Protocol: TGFβ1 was used at 5 ng/mL. In addition to COL1A1 immunostaining, cells were co-immunostained with aSMA followed by a goat anti-rabbit Alexa647 secondary antibody.

[6] = tested on: primary human alveolar macrophages; assay: LPS-induced IL-1β release; type: cell-based
Protocol: Human macrophages were cultured in Human Alveolar Macrophage Media per manufacturer’s instructions. […] Cells were then co-stimulated with 500 ng/mL LPS for 4 h. Plates were spun down and supernatant collected for analysis using a human IL-1β ELISA kit per manufacturer’s directions.

[7] = Plasma protein binding (fraction unbound); type: in vitro ADME; settings: rat plasma
[8] = Rat plasma pharmacokinetics after oral dose; type: in vivo; settings: 10 mg/kg oral, n=2
Protocol: This distinct, long-lived pharmacokinetic profile would support a dosing frequency less than that of other LPAR1 antagonists described in the literature.
Plasma and lung homogenate samples were thawed and further diluted as necessary with naïve mouse plasma or naïve lung homogenate matrix. […] Plasma drug concentrations were calculated by comparison of peak area ratios of analyte/IS to the prepared calibration standards using Sciex Analyst software.

[9] = once per day for 4 days (steady state), 3 h after last dose

T1 sequence (P61793 whole entry): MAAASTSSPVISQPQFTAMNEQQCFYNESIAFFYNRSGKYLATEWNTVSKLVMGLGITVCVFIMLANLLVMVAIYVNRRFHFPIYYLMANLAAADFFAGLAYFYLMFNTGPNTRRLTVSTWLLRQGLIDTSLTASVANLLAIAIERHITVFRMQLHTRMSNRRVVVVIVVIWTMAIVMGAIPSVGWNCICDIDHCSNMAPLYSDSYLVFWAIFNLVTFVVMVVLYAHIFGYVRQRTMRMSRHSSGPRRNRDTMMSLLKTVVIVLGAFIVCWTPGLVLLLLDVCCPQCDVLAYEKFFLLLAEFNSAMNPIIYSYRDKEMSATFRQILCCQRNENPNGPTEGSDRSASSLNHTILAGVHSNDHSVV
LPAR1 (Homo sapiens, UniProt Q92633), sequence (Q92633 whole entry): as the sequence (P61793 whole entry) above, with A4I, S8I, Q22P, Y40H, V61I, D193E, H194N, V269I, N331S, N335T counted along it

COc1ccc(NC(=O)N(c2ccccc2C(C)C)C2CCC(C(=O)O)CC2)c(OC(F)F)n1 (centres unmarked) [PIPE-791]
IC50 [1]: 8 nM
blockade of LPA-induced histamine release ([2]; oral, 4 consecutive days (steady state), LPA 3 or 24 h after final dose): significant efficacy at 0.3 and 3 mg/kg was observed at both timepoints
blockade of LPA-induced histamine release ([2]; single oral dose 0.3 mg/kg, LPA challenge 3 or 24 h later): significance was observed at 24 h but not at 3 h
blockade of LPA-induced histamine release ([2]; single oral dose 3 mg/kg, LPA challenge 3 or 24 h later): significant blockade of histamine release
slice health as measured by LDH in the media [3]: no significant effect on slice health
increase in potency when dosed 3 versus 24 h prior to radioligand ([4]; in vivo receptor occupancy): 20 fold
lung receptor occupancy ED50 [4, 9]: 0.1 mg/kg
EC50 [4, 9]: 18 nM
EC90 ([4]; once per day for 4 days (steady state), read-out: lung receptor occupancy EC90 (total plasma concentration)): 50 nM
lung receptor occupancy ED50 ([4]; single oral dose 3 h prior to radioligand): 0.5 mg/kg
lung receptor occupancy ED50 ([4]; single oral dose 24 h prior to radioligand): 0.09 mg/kg
EC50 ([4]; single oral dose, 3 h): 79 nM
radiotracer displacement (LPAR1 receptor occupancy) in lung ([4]; single oral dose, 3 h post dose): Significant radiotracer displacement (LPAR1 receptor occupancy) was observed at 3 mg/kg
EC50 ([4]; single oral dose, 24 h): 4 nM
radiotracer displacement (LPAR1 receptor occupancy) in lung ([4]; single oral dose, 24 h post dose): significant occupancy was observed at both 0.3 and 3 mg/kg
COL1A1 induction ([5]; LPA stimulation): significantly inhibited
αSMA expression ([5]; LPA stimulation): significantly inhibited
COL1A1 induction ([5]; TGFβ1 stimulation): significantly inhibited
αSMA expression ([5]; TGFβ1 stimulation): significantly inhibited
LPS-induced IL-1β in culture media ([6]; 500 ng/mL LPS 4 h, LPS alone 4.3-fold increase): inhibited to baseline levels
IL-1β in culture media, compound alone ([6]; no LPS): No increase was observed
plasma fraction unbound [7]: 0.057
plasma unbound concentration at 24 h post-dose versus calcium mobilization IC50 [8]: exceeded the in vitro calcium mobilization IC50
